From patent US11931431B2, “PSMA-targeted radiopharmaceutical for diagnosing and treating prostate cancer” (FUTURECHEM CO., LTD, priority 2018, dated 2024)

Target: PSMA (Homo sapiens, UniProt Q04609)
Assay: Measurement of binding capacity: competition with [^125I]30 on 22RV1 cells
Design: host or cells: 22RV1 human prostate cancer cells
Conditions: for binding force / binding capacity to PSMA, in words / IC50 / Ki: 22RV1 cells; for IC50 / Ki: [^125I]30 0.1 nM, 37° C., 2 hours; for IC50: read-out: IC50; for Ki: read-out: Ki value
Experimental: To confirm the binding capacity of the compounds of the present invention to PSMA, the following experiment was performed.
RPMI1640 supplemented with 1% BSA (bovine serum albumin) was used as a buffer solution.
[^125I]30 (0.1 nM) obtained in Comparative Example 1 was added to a vessel containing 22RV1 cells (5×10^4), to which the compound represented by formula 1 was loaded at 9 concentrations (1.00×10^−4˜1.00×10^−12 M), followed by stirring at 37° C. for 2 hours. Upon completion of the stirring, the vessel was washed with PBS solution (2 mL) three times, and then the radioactivity was measured using a gamma counter (2480 WIZARD2 Gamma Counter PerkinElmer Co., MA). The 50% inhibition concentration (IC50) for each compound was calculated using a GraphPad Prism program (GraphPad Software, Inc., CA)
(Maresca, K. P. et al., 2009, J. Med. Chem. 52, 347-357)

Sequence of PSMA (Q04609 whole entry): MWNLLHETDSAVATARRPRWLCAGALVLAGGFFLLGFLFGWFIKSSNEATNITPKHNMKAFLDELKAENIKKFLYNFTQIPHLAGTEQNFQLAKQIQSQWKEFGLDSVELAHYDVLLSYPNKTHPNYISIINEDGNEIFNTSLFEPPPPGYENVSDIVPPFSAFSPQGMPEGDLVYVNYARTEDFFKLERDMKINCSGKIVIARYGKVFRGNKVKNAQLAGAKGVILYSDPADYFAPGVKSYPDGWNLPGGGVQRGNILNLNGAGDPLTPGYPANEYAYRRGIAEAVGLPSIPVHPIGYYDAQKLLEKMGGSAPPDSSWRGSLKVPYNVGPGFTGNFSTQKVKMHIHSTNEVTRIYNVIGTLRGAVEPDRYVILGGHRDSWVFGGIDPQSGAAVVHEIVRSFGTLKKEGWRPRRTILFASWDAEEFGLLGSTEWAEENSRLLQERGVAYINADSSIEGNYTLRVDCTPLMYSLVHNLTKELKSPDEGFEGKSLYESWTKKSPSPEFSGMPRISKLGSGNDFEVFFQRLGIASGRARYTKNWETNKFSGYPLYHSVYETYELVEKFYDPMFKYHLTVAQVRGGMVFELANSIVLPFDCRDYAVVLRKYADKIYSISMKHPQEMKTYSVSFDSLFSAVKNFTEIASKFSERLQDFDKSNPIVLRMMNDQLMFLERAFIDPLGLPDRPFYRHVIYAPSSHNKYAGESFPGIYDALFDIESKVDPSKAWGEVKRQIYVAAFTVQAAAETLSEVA

For `O=C(O)CC[C@H](NC(=O)N[C@@H](CCCCNC(=O)NCc1cn(CCOCCNC(=O)CN2CCN3CCN4CCN(CC2)CC(=O)[O][Ga]([O]C(=O)C3)[O]C(=O)C4)nn1)C(=O)O)C(=O)O` [Ga-1a], the “binding force / binding capacity to PSMA, in words” value (shortened to “binding force / binding capacity”) was “relatively low binding force to PSMA”, the IC50 was 571 ± 136 nM and the Ki was 69.9 ± 29.8 nM. For the same compound, the “binding force to PSMA, times higher than that of Ga-1a” value (compared with Ga-1a) was “about 18.6 times”.

For `O=C(O)CC[C@H](NC(=O)N[C@@H](CCCCNC(=O)N(Cc1cn(CCOCCNC(=O)CN2CCN3CCN4CCN(CC2)CC(=O)[O][Ga]([O]C(=O)C3)[O]C(=O)C4)nn1)c1ccncc1)C(=O)O)C(=O)O` [Ga-1b], the IC50 was 237 ± 47.1 nM and the Ki was 18.7 ± 1.87 nM.

`O=C(O)CC[C@H](NC(=O)N[C@@H](CCCCN(CC(=O)O)C(=O)CCc1cn(CCOCCNC(=O)CN2CCN3CCN4CCN(CC2)CC(=O)[O][Ga]([O]C(=O)C3)[O]C(=O)C4)nn1)C(=O)O)C(=O)O` [Ga-1c] gave an IC50 of 21.2 ± 2.06 nM and a Ki of 3.76 ± 0.37 nM.

Work on `O=C(O)CC[C@H](NC(=O)N[C@@H](CCCCN(CCC(=O)O)C(=O)CCc1cn(CCOCCNC(=O)CN2CCN3CCN4CCN(CC2)CC(=O)[O][Ga]([O]C(=O)C3)[O]C(=O)C4)nn1)C(=O)O)C(=O)O` [Ga-1d] yielded an IC50 of 75.3 ± 18.6 nM and a Ki of 18.6 ± 4.6 nM.

In the case of `O=C(O)CCC(NC(=O)NC(CCCCN(CC(=O)O)C(=O)COCCOCCNC(=O)CN1CCN2CCN3CCN(CC1)CC(=O)[O][Ga]([O]C(=O)C2)[O]C(=O)C3)C(=O)O)C(=O)O` (stereo not drawn) [Ga-1e], the IC50 is reported as 47.4 ± 1.78 nM and the Ki is reported as 12.9 ± 0.49 nM.

For `O=C(O)CC[C@H](NC(=O)N[C@@H](CCCCN(CC(=O)O)C(=O)COCCOCCNC(=O)[C@H](CCCCNC(=O)CCCc1ccccc1)NC(=O)CN1CCN2CCN3CCN(CC1)CC(=O)[O][Ga]([O]C(=O)C2)[O]C(=O)C3)C(=O)O)C(=O)O` [Ga-1f], the “binding force / binding capacity” value was “higher binding capacity than the compound Ga-1e”, the IC50 was 25.7 ± 5.06 nM and the Ki was 8.12 ± 1.6 nM.

`Cc1ccc(CCCC(=O)NCCCC[C@H](NC(=O)CN2CCN3CCN4CCN(CC2)CC(=O)[O][Ga]([O]C(=O)C3)[O]C(=O)C4)C(=O)NCCOCCOCC(=O)N(CCCC[C@H](NC(=O)N[C@@H](CCC(=O)O)C(=O)O)C(=O)O)CC(=O)O)cc1` [Ga-1g] was tested, and the “binding force / binding capacity” value was “higher binding capacity than the compound Ga-1e”, the IC50 was 18.4 ± 0.35 nM and the Ki was 5.82 ± 0.11 nM.
